Measured values reported in ChEMBL document CHEMBL5303573, “Mapping human microbiome drug metabolism by gut bacteria and their genes” (Nature, 2019).

Columns and labels:
[1] = segatella copri, 12 h, 2 µM
Description: The drug is tested on Prevotella copri strain: DSM18205 for biotransformation. The drug concentrations were measured before and after a 12-h incubation by liquid-chromatography-coupled mass spectrometry (LC–MS)

[2] = parabacteroides distasonis, 12 h, 2 µM
Description: The drug is tested on Parabacteroides distasonis strain: ATCC8503 for biotransformation. The drug concentrations were measured before and after a 12-h incubation by liquid-chromatography-coupled mass spectrometry (LC–MS)

[3] = The drug is tested on Enterococcus faecalis strain: V583 for biotransformation. The drug concentrations were measured before and after a 12-h incubation by liquid-chromatography-coupled mass spectrometry (LC–MS); conditions: 2 µM
[4] = The drug is tested on Ruminococcus gnavus strain: ATCC29149 for biotransformation. The drug concentrations were measured before and after a 12-h incubation by liquid-chromatography-coupled mass spectrometry (LC–MS); conditions: mediterraneibacter gnavus, 2 µM
[5] = The drug is tested on Collinsella aerofaciens strain: ATCC25986 for biotransformation. The drug concentrations were measured before and after a 12-h incubation by liquid-chromatography-coupled mass spectrometry (LC–MS); conditions: 2 µM
[6] = The drug is tested on Clostridium sp. strain: fecal isolate for biotransformation. The drug concentrations were measured before and after a 12-h incubation by liquid-chromatography-coupled mass spectrometry (LC–MS); conditions: 2 µM
[7] = The drug is tested on Enterobacter cancerogenus strain: ATCC35316 for biotransformation. The drug concentrations were measured before and after a 12-h incubation by liquid-chromatography-coupled mass spectrometry (LC–MS); conditions: 2 µM
[8] = The drug is tested on Parabacteroides merdae strain: ATCC43184 for biotransformation. The drug concentrations were measured before and after a 12-h incubation by liquid-chromatography-coupled mass spectrometry (LC–MS); conditions: 2 µM
[9] = The drug is tested on Eubacterium hallii strain: DSM3353 for biotransformation. The drug concentrations were measured before and after a 12-h incubation by liquid-chromatography-coupled mass spectrometry (LC–MS); conditions: anaerobutyricum hallii, 2 µM
[10] = The drug is tested on Providencia stuartii strain: ATCC25827 for biotransformation. The drug concentrations were measured before and after a 12-h incubation by liquid-chromatography-coupled mass spectrometry (LC–MS); conditions: 2 µM
[11] = The drug is tested on Clostridium scindens strain: ATCC35704 for biotransformation. The drug concentrations were measured before and after a 12-h incubation by liquid-chromatography-coupled mass spectrometry (LC–MS); conditions: 2 µM
[12] = enterocloster bolteae, 12 h, 2 µM
Description: The drug is tested on Clostridium bolteae strain: ATCCBAA-613 for biotransformation. The drug concentrations were measured before and after a 12-h incubation by liquid-chromatography-coupled mass spectrometry (LC–MS)

[13] = The drug is tested on Anaerococcus hydrogenalis strain: DSM7454 for biotransformation. The drug concentrations were measured before and after a 12-h incubation by liquid-chromatography-coupled mass spectrometry (LC–MS); conditions: 2 µM
[14] = limosilactobacillus reuteri cf48-3a, 12 h, 2 µM
Description: The drug is tested on Lactobacillus reuteri CF48-3A strain: BEI HM-102 for biotransformation. The drug concentrations were measured before and after a 12-h incubation by liquid-chromatography-coupled mass spectrometry (LC–MS)

[15] = The drug is tested on Odoribacter splanchnicus strain: fecal isolate for biotransformation. The drug concentrations were measured before and after a 12-h incubation by liquid-chromatography-coupled mass spectrometry (LC–MS); conditions: 2 µM
[16] = The drug is tested on Coprococcus comes strain: ATCC27758 for biotransformation. The drug concentrations were measured before and after a 12-h incubation by liquid-chromatography-coupled mass spectrometry (LC–MS); assay type: ADME; design: dose 2 uM, timepoint 0 vs 12 hours; conditions: 2 µM
[17] = bacteroides fragilis, 12 h, 2 µM
Description: The drug is tested on Bacteroides fragilis strain: NCTC 9343 for biotransformation. The drug concentrations were measured before and after a 12-h incubation by liquid-chromatography-coupled mass spectrometry (LC–MS)

[18] = The drug is tested on Clostridium sporogenes strain: ATCC15579 for biotransformation. The drug concentrations were measured before and after a 12-h incubation by liquid-chromatography-coupled mass spectrometry (LC–MS); conditions: 2 µM
[19] = The drug is tested on Bacteroides fragilis strain: HMW615 for biotransformation. The drug concentrations were measured before and after a 12-h incubation by liquid-chromatography-coupled mass spectrometry (LC–MS); conditions: 2 µM

| SMILES | Bacterial Biotransformation [1] | Bacterial Biotransformation [2] | Bacterial Biotransformation [3] | Bacterial Biotransformation [4] | Bacterial Biotransformation [5] | Bacterial Biotransformation [6] | Bacterial Biotransformation [7] | Bacterial Biotransformation [8] | Bacterial Biotransformation [9] | Bacterial Biotransformation [10] | Bacterial Biotransformation [11] | Bacterial Biotransformation [12] | Bacterial Biotransformation [13] | Bacterial Biotransformation [14] | Bacterial Biotransformation [15] | Bacterial Biotransformation [16] | Bacterial Biotransformation [17] | Bacterial Biotransformation [18] | Bacterial Biotransformation [19] |
| --- | --- | --- | --- | --- | --- | --- | --- | --- | --- | --- | --- | --- | --- | --- | --- | --- | --- | --- | --- |
| CC(C)(C)NC[C@H](O)COc1nsnc1N1CCOCC1.O=C(O)/C=C\C(=O)O [TIMOLOL MALEATE] | Compound NOT metabolized | Compound NOT metabolized | Compound NOT metabolized | Compound NOT metabolized | Compound NOT metabolized | Compound NOT metabolized | Compound NOT metabolized | Compound NOT metabolized | Compound NOT metabolized | Compound NOT metabolized | Compound NOT metabolized | Compound NOT metabolized | Compound NOT metabolized | Compound NOT metabolized | Compound NOT metabolized | Compound NOT metabolized | Compound NOT metabolized | Compound NOT metabolized | – |
| CCCCCNC(=N)N/N=C/c1c[nH]c2ccc(OC)cc12.O=C(O)/C=C\C(=O)O [TEGASEROD MALEATE] | Compound NOT metabolized | Compound NOT metabolized | Compound NOT metabolized | Compound NOT metabolized | Compound NOT metabolized | Compound NOT metabolized | – | Compound NOT metabolized | Compound NOT metabolized | Compound NOT metabolized | Compound NOT metabolized | Compound NOT metabolized | Compound NOT metabolized | Compound NOT metabolized | Compound NOT metabolized | Compound NOT metabolized | Compound NOT metabolized | Compound NOT metabolized | Compound NOT metabolized |
| COc1cc2nc(N(C)CCCNC(=O)C3CCCO3)nc(N)c2cc1OC (centres undefined) [ALFUZOSIN] | Compound NOT metabolized | Compound NOT metabolized | Compound NOT metabolized | Compound NOT metabolized | Compound NOT metabolized | Compound NOT metabolized | – | Compound NOT metabolized | Compound NOT metabolized | Compound NOT metabolized | Compound NOT metabolized | Compound NOT metabolized | Compound NOT metabolized | Compound NOT metabolized | Compound NOT metabolized | Compound NOT metabolized | Compound NOT metabolized | Compound NOT metabolized | Compound NOT metabolized |
| CCN1CCCC1CNC(=O)c1cc(S(N)(=O)=O)ccc1OC (centres undefined) [SULPIRIDE] | – | – | Compound NOT metabolized | Compound NOT metabolized | Compound NOT metabolized | Compound NOT metabolized | Compound NOT metabolized | Compound NOT metabolized | Compound NOT metabolized | Compound NOT metabolized | Compound NOT metabolized | Compound NOT metabolized | Compound NOT metabolized | Compound NOT metabolized | – | Compound NOT metabolized | Compound NOT metabolized | Compound NOT metabolized | – |
